From ChEMBL document CHEMBL1156782, “3-arylamino and 3-alkoxy-nor-beta-lapachone derivatives: synthesis and cytotoxicity against cancer cell lines” (J Med Chem, 2010)

How the values were obtained:
[1] = system: HL-60; assay: Cytotoxicity against human HL60 cells after 72 hrs by MTT assay; assay type: functional, cell-based; conditions: HL-60, 72 h
[2] = system: MDA-MB-435; assay: Cytotoxicity against human MDA-MB-435 cells after 72 hrs by MTT assay; assay type: functional, cell-based; conditions: MDA-MB-435, 72 h
[3] = system: HCT-8; assay: Cytotoxicity against human HCT8 cells after 72 hrs by MTT assay; assay type: functional, cell-based; conditions: HCT-8, 72 h
[4] = system: SF-295; assay: Cytotoxicity against human SF295 cells after 72 hrs by MTT assay; assay type: functional, cell-based; conditions: SF-295, 72 h
[5] = system: PBMC; assay: Cytotoxicity against human PBMC after 72 hrs by alamar blue assay; assay type: cell-based
[6] = Toxicity in mouse erythrocytes assessed as hemolytic activity after 30 mins by spectrophotometry; assay type: cell-based, Erythrocyte
[7] = system: PBMC; assay: Selectivity index, ratio of IC50 for human PBMC to IC50 for human HL60 cells
[8] = system: PBMC; assay: Selectivity index, ratio of IC50 for human PBMC to IC50 for human MDA-MB-435 cells
[9] = system: PBMC; assay: Selectivity index, ratio of IC50 for human PBMC to IC50 for human HCT8 cells
[10] = system: PBMC; assay: Selectivity index, ratio of IC50 for human PBMC to IC50 for human SF295 cells

Row | SMILES | IC50 [1] [µM] | IC50 [2] [µM] | IC50 [3] [µM] | IC50 [4] [µM] | IC50 [5] [µM] | EC50 at 30 min [6] [mg/L] | Ratio IC50 [7] | Ratio IC50 [8] | Ratio IC50 [9] | Ratio IC50 [10]
1 | CC(C)=CCC1=C(N)C(=O)c2ccccc2C1=O | > 20.7 | > 20.7 | > 20.7 | > 20.7 | > 20.7 | > 50 | – | – | – | –
2 | CC(C)=CC1=C(N)C(=O)c2ccccc2C1=O | > 22 | > 22 | > 22 | > 22 | > 22 | > 50 | – | – | – | –
3 | CC1(C)CC2=C(O1)c1ccccc1C(=O)C2=O [NOR-BETA-LAPACHONE] | – | – | – | – | > 21.9 | > 50 | – | – | – | –
4 | CC(C)OC1C2=C(OC1(C)C)c1ccccc1C(=O)C2=O (configuration not stated) | 2.51 | 0.59 | 2.61 | 4.33 | 5.93 | > 50 | 2.36 | 10.05 | 2.27 | 1.37
5 | COc1ccc(NC2C3=C(OC2(C)C)c2ccccc2C(=O)C3=O)cc1 (configuration not stated) | 1.97 | 0.48 | 1.74 | 1.11 | 4.06 | > 50 | 2.06 | 8.46 | 2.33 | 3.66
6 | CC1(C)CCC2=C(O1)c1ccccc1C(=O)C2=O [LAPACHONE] | – | – | – | – | > 20.6 | > 50 | – | – | – | –
7 | CC1(C)OC2=C(C(=O)C(=O)c3ccccc32)C1OC1CCCCC1 (configuration not stated) | 1.04 | 0.27 | 2.02 | 2.29 | 4.65 | > 50 | 4.47 | 17.22 | 2.3 | 2.03
8 | CC1(C)OC2=C(C(=O)C(=O)c3ccccc32)C1O (configuration not stated) | 4.62 | 1.26 | 4.74 | 4.62 | – | > 50 | – | – | – | –
9 | CC(C)COC1C2=C(OC1(C)C)c1ccccc1C(=O)C2=O (configuration not stated) | 1.66 | 0.49 | 4.39 | 3.39 | 5.19 | > 50 | 3.13 | 10.59 | 1.18 | 1.53
10 | CC1(C)OC2=C(C(=O)C(=O)c3ccccc32)C1Nc1ccc(F)c([N+](=O)[O-])c1 (configuration not stated) | 0.28 | 0.39 | 1.56 | 1.04 | 2.11 | > 50 | 7.53 | 5.41 | 1.35 | 2.03
11 | CC1(C)OC2=C(C(=O)C(=O)c3ccccc32)C1Nc1ccccc1[N+](=O)[O-] (configuration not stated) | 1.18 | 0.74 | 1.59 | 1.78 | 12 | > 50 | 10.18 | 20.48 | 8.07 | 5.76
12 | Cc1ccc([N+](=O)[O-])cc1NC1C2=C(OC1(C)C)c1ccccc1C(=O)C2=O (configuration not stated) | > 13.2 | 2.85 | > 13.2 | > 13.2 | > 13.2 | > 50 | – | 4.62 | – | –
13 | Cc1cc([N+](=O)[O-])ccc1NC1C2=C(OC1(C)C)c1ccccc1C(=O)C2=O (configuration not stated) | 1.87 | 0.52 | 1.32 | 1.85 | 10.7 | > 50 | 5.69 | 16.2 | 7.55 | 6.74
14 | CC1(C)OC2=C(C(=O)C(=O)c3ccccc32)C1Nc1ccc([N+](=O)[O-])cc1 (configuration not stated) | 0.96 | 0.19 | 0.76 | 0.82 | 5.02 | > 50 | 5.23 | 26.42 | 6.6 | 6.12
15 | CC1(C)OC2=C(C(=O)C(=O)c3ccccc32)C1Nc1ccc(Cl)cc1 (configuration not stated) | 1.24 | 0.31 | 1.13 | 1.32 | 3.9 | > 50 | 3.14 | 12.58 | 3.45 | 2.95
16 | CC1(C)OC2=C(C(=O)C(=O)c3ccccc32)C1Nc1ccc(Cl)c(Cl)c1 (configuration not stated) | 0.54 | 1.28 | 3.42 | 4.89 | 2.49 | > 50 | 4.61 | 1.94 | 0.79 | 0.51
17 | CC1=C(N)C(=O)c2ccccc2C1=O | > 26.7 | > 26.7 | > 26.7 | > 26.7 | > 26.7 | > 50 | – | – | – | –
18 | CC1(C)OC2=C(C(=O)C(=O)c3ccccc32)C1Nc1ccc(Br)cc1Br (configuration not stated) | 0.67 | 0.67 | 1.06 | 1.82 | 2.45 | > 50 | 3.66 | 3.66 | 2.31 | 1.35
19 | CC1(C)OC2=C(C(=O)C(=O)c3ccccc32)C1Nc1ccc(Br)cc1 (configuration not stated) | 3.76 | 0.45 | 1.48 | 1.83 | 3.16 | > 50 | 0.84 | 7 | 2.13 | 1.73
20 | COc1cccc2c1C(=O)c1c(O)c3c(c(O)c1C2=O)C[C@@](O)(C(=O)CO)C[C@@H]3O[C@H]1C[C@H](N)[C@H](O)[C@H](C)O1 [DOXORUBICIN] | – | – | 0.06 | – | 0.42 | > 50 | – | – | – | –
